Laboratory results: BigSolDB 2.1

CS(=O)(=O)c1ccc([C@@H](O)[C@@H](CF)NC(=O)C(Cl)Cl)cc1
Settings | solubility (mole fraction)
in THF, 279.65 K | 0.0293
in THF, 284.55 K | 0.0317
in THF, 289.35 K | 0.0342
in THF, 294.5 K | 0.0374
in THF, 297.65 K | 0.0398
in acetone, 279.25 K | 0.0261
in acetone, 284.35 K | 0.0294
in acetone, 289.1 K | 0.0327
in acetone, 294.45 K | 0.0368
in acetone, 297.75 K | 0.0396
in ethanol, 278.55 K | 0.00126
in ethanol, 283.45 K | 0.00153
in ethanol, 288.8 K | 0.00212
in ethanol, 293.7 K | 0.00259
in ethanol, 298.45 K | 0.00315
in methanol, 278.55 K | 0.00408
in methanol, 283.5 K | 0.00488
in methanol, 288.85 K | 0.00598
in methanol, 293.8 K | 0.00724
in methanol, 298.65 K | 0.00878
in n-propanol, 278.35 K | 0.0008
in n-propanol, 284.05 K | 0.00106
in n-propanol, 289 K | 0.00134
in n-propanol, 293.5 K | 0.00165
in n-propanol, 298.65 K | 0.00211
in water, 278.8 K | 2.48e-05
in water, 283.85 K | 2.86e-05
in water, 289.1 K | 3.62e-05
in water, 293.95 K | 4.64e-05
in water, 298.7 K | 5.49e-05
